This experiment addresses T1, RAB1A (Human Rab1a Recombinant protein) (Homo sapiens, UniProt P62820).
T1 construct: commercial recombinant protein (Shanghai Chunmai Biotechnology); RED-NHS labelled
Kind of experiment: microscale thermophoresis. The settings on record: RED-NHS labelled protein; room temperature; C118P 0.61 pM to 20 µM. The format is binding. On the technique in general: In MST a laser heats a spot of the sample, and binding alters the fluorescence response.

T1 sequence (P62820 2-205): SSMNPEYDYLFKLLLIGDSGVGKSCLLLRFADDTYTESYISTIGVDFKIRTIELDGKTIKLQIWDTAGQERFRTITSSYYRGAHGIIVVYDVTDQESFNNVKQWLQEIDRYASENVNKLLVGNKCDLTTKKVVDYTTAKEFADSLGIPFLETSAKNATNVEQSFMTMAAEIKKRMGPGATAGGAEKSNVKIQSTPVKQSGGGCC

The term Kd denotes the free concentration of one partner at which half of the binding sites on the other are occupied at equilibrium, for simple one-to-one binding. With `COc1cc(OC)cc(-c2nc[nH]c2-c2ccc(OC)c(OP(=O)(O)O)c2)c1` [C118P], the Kd amounted to 3.13 nM.

Values taken from paper PMC11678531, “C118P Suppresses Gastric Cancer Growth via Promoting Autophagy–Lysosomal Degradation of RAB1A” (Pharmaceutics, 2024).
